Measured values from BindingDB's records for doi:10.1016/S1074-5521(00)00104-6 (Axys Pharmaceutical, 2000).

How the values were obtained:
Assay in all cases: Enzyme Assay and Determination of the Inhibition Constants
Details in all cases: pH 7.4; 22 °C
Coagulation factor X = Coagulation factor X (Homo sapiens, UniProt P00742)
Experimental: (§1) Each enzyme was assayed with a set of different concentrations of each inhibitor. […] Ki(apparent) values were calculated from enzyme velocity curves using the software package BatchKi (BioKin Ltd, Madison, WI). These apparent inhibition constants were then converted to Ki values by assuming competitive inhibition and using the formula Ki = Ki(apparent)/(1 + S/Km).

Prothrombin = Prothrombin (Homo sapiens, UniProt P00734)
Experimental: as §1

Tryptase beta-2 = Tryptase beta-2 (Homo sapiens, UniProt P20231)
Experimental: as §1

[1] = target: Tissue-type plasminogen activator (Homo sapiens, UniProt P00750)
Experimental: as §1

[2] = target: Urokinase-type plasminogen activator (Homo sapiens, UniProt P00749)
Experimental: as §1

Coagulation factor X, sequence (P00742 41-179 limits assumed): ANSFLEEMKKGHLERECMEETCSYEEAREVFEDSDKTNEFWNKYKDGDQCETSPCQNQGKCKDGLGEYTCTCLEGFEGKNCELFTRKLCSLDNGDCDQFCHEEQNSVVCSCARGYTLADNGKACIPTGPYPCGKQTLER
Coagulation factor X, sequence (P00742 235-488 limits assumed): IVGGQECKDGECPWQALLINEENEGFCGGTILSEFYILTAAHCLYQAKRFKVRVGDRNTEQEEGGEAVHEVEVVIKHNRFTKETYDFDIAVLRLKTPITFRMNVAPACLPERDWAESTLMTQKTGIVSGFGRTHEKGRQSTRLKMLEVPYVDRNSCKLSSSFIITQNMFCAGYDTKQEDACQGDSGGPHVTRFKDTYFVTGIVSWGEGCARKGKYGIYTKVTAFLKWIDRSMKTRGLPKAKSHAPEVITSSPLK
Tissue-type plasminogen activator, sequence (P00750 whole entry): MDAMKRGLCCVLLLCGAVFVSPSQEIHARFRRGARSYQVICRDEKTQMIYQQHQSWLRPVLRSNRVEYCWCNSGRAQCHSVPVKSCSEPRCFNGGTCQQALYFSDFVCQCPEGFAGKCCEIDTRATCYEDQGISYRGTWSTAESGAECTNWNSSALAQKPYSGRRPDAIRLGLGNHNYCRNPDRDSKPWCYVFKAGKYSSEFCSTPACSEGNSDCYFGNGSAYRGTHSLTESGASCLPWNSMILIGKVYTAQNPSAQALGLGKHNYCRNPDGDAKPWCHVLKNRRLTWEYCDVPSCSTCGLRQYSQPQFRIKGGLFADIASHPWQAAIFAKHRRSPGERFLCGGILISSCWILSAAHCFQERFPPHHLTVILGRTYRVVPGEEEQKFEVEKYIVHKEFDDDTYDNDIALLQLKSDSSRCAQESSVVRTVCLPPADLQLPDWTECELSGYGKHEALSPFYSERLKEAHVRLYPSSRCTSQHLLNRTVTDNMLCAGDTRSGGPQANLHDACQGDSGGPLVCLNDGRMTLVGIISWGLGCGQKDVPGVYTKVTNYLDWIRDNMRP
Tryptase beta-2, sequence (P20231 as listed by the source): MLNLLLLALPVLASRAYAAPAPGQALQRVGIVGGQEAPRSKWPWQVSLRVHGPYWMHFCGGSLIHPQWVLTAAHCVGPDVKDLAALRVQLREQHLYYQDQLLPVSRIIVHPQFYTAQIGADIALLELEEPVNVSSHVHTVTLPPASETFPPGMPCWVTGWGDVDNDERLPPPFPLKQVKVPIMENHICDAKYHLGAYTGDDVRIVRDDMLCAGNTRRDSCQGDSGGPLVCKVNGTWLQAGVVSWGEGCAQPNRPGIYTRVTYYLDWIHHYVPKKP

SMILES | Ki (Coagulation factor X) | Ki (Prothrombin) | Ki (Tryptase beta-2) | Ki [1] | Ki [2]
N=C(N)c1ccccc1 [Benzamidine] | 110 µM |  |  |  | 
N=C(N)c1cc2cccnc2s1 [[amino(thieno[2,3-b]pyridin-2-yl)methylidene]azanium] | 360 µM | 1600 µM | 34 µM | 1800 µM | 
N=C(N)c1cc2ccccc2s1 [Benzo[b]thiophene-2-carboxamidine] | 21 µM | 58 µM | 9.9 µM | 15 µM | 2.3 µM
N=C(N)c1cc2c(I)cccc2s1 [CA-01] | 30 µM |  | 1.5 µM | 16.8 µM | 
